What all share (format): in vivo
The test system of assay [1] is Bemisia tabaci. Briefly: Bemisia tabaci leaf dip test (brinjal leaves, whitefly adults). The note with it: foliar, dead and moribund whitefly adults 72 h after release, compared to untreated controls, read-out: percent mortality. As to the method:
The leaf dip method was used for testing, wherein the required quantity of the compound was weighed and dissolved in a tube containing a solvent solution. The tube was put on a vortex at 2000 rpm for proper mixing and then diluted with a 0.01% Triton-X solution to the desired test concentration. Brinjal leaves were dipped in the compound solution for 10 seconds; shade dried for 20 min and then placed, with the abaxial side of the leaf up, on 4 ml of a solidified 1% agar-agar solution in respective container caps. Known numbers of freshly emerged whitefly adults were collected, using a modified aspirator, and released into a perforated container in which the cap containing the treated leaf was placed. The containers were kept in a plant growth chamber at a temperature of 25° C. and relative humidity of 70%. Observations on dead, moribund and alive adults were recorded 72 h after the release. Percent mortality was calculated by combining dead and moribund adults and comparing the result to the one of the untreated controls. The compounds 1 9 11 18 25 28 29 30 31

The subject of assay [2] is Nilaparvata lugens. Briefly: Nilaparvata lugens seedling dip test (paddy seedlings, third instar nymphs). The settings on record: dead and moribund third instar nymphs 72 h after release, compared to untreated controls, read-out: percent mortality. As to the method: The seedling dip method was used for testing, wherein the required quantity of the compound was weighed and dissolved in a tube containing a solvent solution. The tube was put on a vortex at 2000 rpm for proper mixing and then diluted with a 0.01% Triton-X solution to the desired test concentration. Paddy seedlings were dipped in the compound solution for 10 seconds, shade dried for 20 min and then the seedlings were placed in glass test tubes with the roots kept in water. 15 third instar nymphs of Nilaparvata lugens were released into each test tube and the tubes were kept in a plant growth chamber at a temperature of 25° C. and relative humidity of 75%. Observations on dead, moribund and alive nymphs were recorded 72 h after the release. Percent mortality was calculated by combining dead and moribund nymphs and comparing the result to the one of the untreated controls. The compounds

The subject of assay [3] is Myzus persicae. The assay is described as follows: Myzus persicae leaf dip test (capsicum leaves, third instar nymphs). The settings on record: foliar, dead and moribund third instar nymphs 72 h after release, compared to untreated controls, read-out: percent mortality. As to the method: The leaf dip method was used for testing, wherein the required quantity of the compound was weighed and dissolved in a tube containing a solvent solution. The tube was put on a vortex at 2000 rpm for proper mixing and then diluted with a 0.01% Triton-X solution to the desired test concentration. Capsicum leaves were dipped in the compound solution for 10 seconds, shade dried for 20 min and then placed, with the abaxial side of the leaf up, in single cells of a bio-assay tray containing 4 ml of a solidified 1% agar-agar solution. Known numbers of third instar nymphs of Myzus persicae, collected in petri plates, were released into the cell with the treated leaf and the cell was covered with a perforated lid for better aeration. The trays were kept in a plant growth chamber at a temperature of 25° C. and a relative humidity of 70%. Observations on dead, moribund and alive nymphs were recorded 72 h after the release. Percent mortality was calculated by combining dead and moribund nymphs and comparing the result with the one of the untreated controls. The compounds

The source of these data is patent US20250282754A1, “BICYCLIC COMPOUNDS AND THEIR USE AS PEST CONTROL AGENTS” (Pl Industries Ltd., priority 2022, published 2025).

For the compound `CC(C)S(=O)(CCC(F)(F)F)=Nc1cccc2nn(-c3cncc(F)c3)cc12` (stereo not drawn) [Compound 104], the mortality at 300 ppm in assay [1] and in assay [2] was at least 70% throughout.
With `CCS(=O)(CC)=Nc1ccc2nn(-c3cncnc3)cc2c1` [Compound 11], the mortality at 300 ppm in assay [1] and in assay [2] was at least 70% in each case.
As to `COc1nn(-c2ccc3nn(-c4cncc(F)c4)cc3c2)c(=O)n1Cc1ccccc1F` [Compound 355, 4-(2-fluorobenzyl)-2-(2-(5-fluoropyridin-3-yl)-2H-indazol-5-yl)-5-methoxy-2,4-dihydro-3H-1,2,4-triazol-3-one], the mortality at 300 ppm in assay [1] and in assay [2] was at least 70% each time.
Take `N=S(=O)(c1ccc2nn(-c3cccnc3)cc2c1)C1CCCCC1` (stereo not drawn) [Compound 560, cyclohexyl(imino)(2-(pyridin-3-yl)-2H-indazol-5-yl)-λ^6-sulfanone]: in assay [3], the mortality at 300 ppm is at least 70%.
Turning to `CN=S(=O)(CC1CC1)c1ccc2nn(-c3cncnc3)cc2c1` (stereo not drawn) [Compound 447], the mortality at 300 ppm in assay [1] and in assay [2] was at least 70% in each case.
For the compound `N=S(=O)(c1ccc2nn(-c3cncc(F)c3)cc2c1)C1CCC1` (stereo not drawn) [Compound 488, cyclobutyl(2-(5-fluoropyridin-3-yl)-2H-indazol-5-yl)(imino)-λ^6-sulfanone], the mortality at 300 ppm in assay [3] was at least 70%.
Regarding `CCCCS(=N)(=O)c1ccc2nn(-c3cccnc3)cc2c1` (stereo not drawn) [Compound 385, butyl(imino)(2-(pyridin-3-yl)-2H-indazol-5-yl)-λ^6-sulfanone], the mortality at 300 ppm in assay [1] and in assay [2] was at least 70% in each case.
As for `CS(C)(=O)=Nc1cccc2nn(-c3cccnc3)cc12` [Compound 72], the mortality at 300 ppm in assay [1] and in assay [2] was at least 70% throughout.
On to `Cc1ccc(S(=O)(=Nc2ccc3nn(-c4cccnc4)cc3c2)N(C)C)cc1` (stereo not drawn) [Compound 93, N,N,4-trimethyl-N′-(2-(pyridin-3-yl)-2H-indazol-5-yl)benzenesulfonimidamide], for which the mortality at 300 ppm in assay [1] and in assay [2] was at least 70% each time.
`CCS(=O)(=NC(C)=O)c1ccc2nn(-c3cncc(F)c3)cc2c1` (stereo not drawn) [Compound 462]: the mortality at 300 ppm in assay [1] and in assay [2] was at least 70% each time.
As to `CS(C)(=O)=Nc1ccc2nn(-c3cncnc3)cc2c1` [Compound 9], the mortality at 300 ppm in assay [1] and in assay [2] was at least 70% throughout.
`O=S(CC1CC1)(=NC1CC1)c1ccc2nn(-c3cncnc3)cc2c1` (stereo not drawn) [Compound 446]: the mortality at 300 ppm in assay [1] and in assay [2] was at least 70% each time.
Consider `CCCCS(=O)(=NCC)c1ccc2nn(-c3cccnc3)cc2c1` (stereo not drawn) [Compound 390], for which the mortality at 300 ppm in assay [3] was at least 70%.
With `CCCS(C)(=O)=Nc1ccc2nn(-c3cncnc3)c(Cl)c2c1` (stereo not drawn) [Compound 180], the mortality at 300 ppm in assay [3] is at least 70%.
The same measure, in the same setting: the figure for `Cc1cncc(-n2cc3cc(N=S(C)(C)=O)ccc3n2)c1` [Compound 168] is at least 70%.
On to `N=S(=O)(CC1CC1)c1ccc2nn(-c3cncnc3)cc2c1` (stereo not drawn) [Compound 450, (cyclopropylmethyl)(imino)(2-(pyrimidin-5-yl)-2H-indazol-5-yl)-λ^6-sulfanone], for which the mortality at 300 ppm in assay [1] and in assay [2] was at least 70% throughout.
Turning to `CCC(CC)S(=O)(=NC(C)=O)c1ccc2nn(-c3cncc(F)c3)cc2c1` (stereo not drawn) [Compound 485], in assay [3], the mortality at 300 ppm was at least 70%.
As for `CCN=S(=O)(c1ccc2nn(-c3cncc(F)c3)cc2c1)C(C)CC` (stereo not drawn) [Compound 490], the mortality at 300 ppm in assay [3] is at least 70%.
In the case of `CS(=N)(=O)c1ccc2nn(-c3cncnc3)cc2c1` (stereo not drawn) [Compound 470, imino(methyl)(2-(pyrimidin-5-yl)-2H-indazol-5-yl)-λ^6-sulfanone], the mortality at 300 ppm in assay [1] and in assay [2] was at least 70% each time.
As for `CCC(C)S(=O)(=NC(C)=O)c1ccc2nn(-c3cncc(F)c3)cc2c1` (stereo not drawn) [Compound 486], the mortality at 300 ppm in assay [3] was at least 70%.
Same read-out and setting: under `N=S(=O)(CC1CCCO1)c1ccc2nn(-c3cccnc3)cc2c1` (stereo not drawn) [Compound 569, imino(2-(pyridin-3-yl)-2H-indazol-5-yl)((tetrahydrofuran-2-yl)methyl)-λ^6-sulfanone] stands at least 70%; under `CCCS(=O)(CC)=Nc1cccc2nn(-c3cncc(F)c3)cc12` (stereo not drawn) [Compound 138], at least 70%; under `CC1(CS(=N)(=O)c2ccc3nn(-c4cncc(F)c4)cc3c2)COC1` (stereo not drawn) [Compound 484, (2-(5-fluoropyridin-3-yl)-2H-indazol-5-yl)(imino)((3-methyloxetan-3-yl)methyl)-λ^6-sulfanone], at least 70%.
As for `CCS(=O)(=NC(C)=O)c1ccc2nn(-c3cncnc3)cc2c1` (stereo not drawn) [Compound 456], in assay [3], the mortality at 300 ppm was at least 70%.
The same measure, in the same setting: under `CCS(=O)(CC)=Nc1cccc2nn(-c3cncc(F)c3)cc12` [Compound 89] stands at least 70%.
On to `CCN=S(C)(=O)c1ccc2nn(-c3cncnc3)cc2c1` (stereo not drawn) [Compound 474], for which the mortality at 300 ppm in assay [1] and in assay [2] was at least 70% throughout.
In the case of `N=S(=O)(c1ccc2nn(-c3cccnc3)cc2c1)C1CCCC1` (stereo not drawn) [Compound 558, cyclopentyl(imino)(2-(pyridin-3-yl)-2H-indazol-5-yl)-λ^6-sulfanone], in assay [3], the mortality at 300 ppm was at least 70%.
The same measure, in the same setting: under `CS(C)(=O)=Nc1ccc(Cl)c2nn(-c3cccnc3)cc12` [Compound 217] stands at least 70%.
Same read-out and setting: under `O=S(CCC(F)(F)F)(=Nc1ccc2nn(-c3ccnnc3)cc2c1)c1ccc(F)cc1` (stereo not drawn) [Compound 70] stands at least 70%.
As to `CCN=S(=O)(CC)c1ccc2nn(-c3cccnc3)cc2c1` (stereo not drawn) [Compound 391], the mortality at 300 ppm in assay [1] and in assay [2] was at least 70% in each case.
For the compound `CCN=S(=O)(c1ccc2nn(-c3cccnc3)cc2c1)C1CCC1` (stereo not drawn) [Compound 567], the mortality at 300 ppm in assay [3] was at least 70%.
`CCCCCS(C)(=O)=Nc1ccc2nn(-c3cncnc3)cc2c1` (stereo not drawn) [Compound 33]: the mortality at 300 ppm in assay [1] and in assay [2] was at least 70% throughout.
As to `CC(C)S(=O)(=Nc1ccc2nn(-c3cccnc3)cc2c1)c1ccc(F)cc1` (stereo not drawn) [Compound 38], the mortality at 300 ppm in assay [1] and in assay [2] was at least 70% each time.
For the compound `CCN=S(=O)(CCCF)c1ccc2nn(-c3cncc(F)c3)cc2c1` (stereo not drawn) [Compound 491], the mortality at 300 ppm in assay [3] was at least 70%.
On the same count and under the same terms, the figure for `CCN=S(=O)(c1ccc2nn(-c3cncc(F)c3)cc2c1)C(CC)CC` (stereo not drawn) [Compound 492] is at least 70%; for `CC(C)S(=O)(CCC(F)(F)F)=Nc1ccc2nn(-c3cccnc3)cc2c1` (stereo not drawn) [Compound 99] it is at least 70%.
On to `CCCS(=O)(CCC)=Nc1cccc2nn(-c3cccnc3)cc12` [Compound 78], for which the mortality at 300 ppm in assay [1] and in assay [2] was at least 70% throughout.
`CC(=O)N=S(C)(=O)c1ccc2nn(-c3cncnc3)cc2c1` (stereo not drawn) [Compound 475]: the mortality at 300 ppm in assay [1] and in assay [2] was at least 70% each time.
For `CCOc1nn(-c2ccc3nn(-c4cccnc4)cc3c2)c(=O)n1Cc1ccccc1F` [Compound 358, 5-ethoxy-4-(2-fluorobenzyl)-2-(2-(pyridin-3-yl)-2H-indazol-5-yl)-2,4-dihydro-3H-1,2,4-triazol-3-one], the mortality at 300 ppm in assay [1] and in assay [2] was at least 70% in each case.
Turning to `CS(C)(=O)=Nc1cccc2nn(-c3cncc(F)c3)cc12` [Compound 87], the mortality at 300 ppm in assay [1] and in assay [2] was at least 70% throughout.
Turning to `CS(=O)(=Nc1ccc2nn(-c3cccnc3)cc2c1)c1cccnc1` (stereo not drawn) [Compound 30], the mortality at 300 ppm in assay [1] and in assay [2] was at least 70% in each case.
On to `COc1nn(-c2ccc3nn(-c4cccnc4)cc3c2)c(=O)n1Cc1cccc(F)c1` [Compound 126, 4-(3-fluorobenzyl)-5-methoxy-2-(2-(pyridin-3-yl)-2H-indazol-5-yl)-2,4-dihydro-3H-1,2,4-triazol-3-one], for which the mortality at 300 ppm in assay [1] and in assay [2] was at least 70% each time.
`CC(C)CS(=O)(CC(C)C)=Nc1ccc2nn(-c3cncnc3)c(Cl)c2c1` [Compound 181]: the mortality at 300 ppm in assay [2] was at least 70%.
On the same count and under the same terms, under `CC(C)S(=O)(=NC(=O)C(F)(F)F)c1ccc2nn(-c3cncnc3)cc2c1` (stereo not drawn) [Compound 417] stands at least 70%.

Broadly, the mortality is the percentage killed.
